These results are taken from patent US20250326753A1, “DUAL CXCR4-BTK INHIBITORS” (X4 Pharmaceuticals, Inc., priority 2022, published 2025).

Read-outs that look alike come from different tables or passages of the source.

One experiment has as its system GBM-U251MG. Description: GBM cell proliferation, U251MG (cell-based cancer efficacy assays). Conditions: Homo sapiens, U-251; Table 6B.
A further experiment deals with Ramos cell line. The note with it: read-out: IC50, inhibition of cell proliferation, Chu et al. 2018; cited from earlier work.
Another experiment relates to U-87 MG. As to the kind of experiment: Glioblastoma multiforme cell proliferation assay (CellTiter Glo), U-87 MG. In kind it is cell-based. Conditions: Homo sapiens. How it is done: (§1) Inhibition of glioblastoma multiforme cell proliferation by compounds of the present invention was evaluated in U-87 MG (ATCC; Cat. No. HTB-14; Lot. No. 5018014) and T98G (ATCC; Cat. No. CRL-1690; Lot. No. 58267513) cell lines. These are adherent cell lines isolated from glioblastoma multiforme/malignant glioma, which express both CXCR4 and BTK (see Zhou et al. 2002 and Yue et al. 2017).
(§2) Cell viability was analyzed with the CellTiter Glo Cell assay kit ([…], Cat. No. G7573, Lot. No. 0000474103), according to the manufacturer's instruction.
(§3) U-87 MG and T98G cells were seeded onto 384-well opaque-walled clear bottom plates (Corning, Cat. No. 3765, Lot. No. 34319047) in EMEM (Invitrogen, Cat. No. 11095-080; Lot. No. 2276656) supplemented with 10% FBS (Invitrogen, Cat. No. 10099-141C, Lot. No. 2145169CP), at a seeding density of 1000 or 1200 cells per well, respectively, and then incubated in 5% CO2 at 37° C. overnight.
(§4) Compounds were prepared as stock solutions of 30 mM in DMSO (Sigma, Cat. No. 276855-1L. Lot. No. SHBL5610). Compounds were added to the cells, with 10 dose points in duplicates, in 3-fold dilution from a top concentration of 30 μM (final DMSO concentration […]), and incubated in 5% CO2 at 37° C. for 96 hr.
(§5) The 384-well plates were equilibrated at room temperature for approximately 30 min. 25 μl of CellTiter-Glo® Reagent was added to each well and mixed for 10 min on an orbital shaker to induce cell lysis. The 384-well plates were incubated at room temperature for 10 min to stabilize luminescent signal. Luminescence was detected on a PerkinElmer EnVision Multimode Plate Reader (measurement time 0.1s) as relative luminescence units (RLU).

The subject of another experiment is MWCL-1. As to the kind of experiment: Apoptosis assay (annexin V flow cytometry) in Waldenstrom's Macroglobulinemia cells. The note with it: Homo sapiens; numeric; read-out: Apoptosis IC50 (μM) in single-mutant WM Cell Lines (MWCL-1). In kind it is cell-based, human. How it is done: Waldenström's Macroglobulinemia cells (MWCL-1) and the bone marrow stromal cells (BMSCs; HS-27A) were used in this study. The MWCL-1 is a lymphoplasmacytic lymphoma established from the bone marrow aspirate of a patient diagnosed with Waldenström's Macroglobulinemia. It was provided by Dr Stephen M. Ansell (MAYO file number 2021-121; 200 First Street SW, Rochester, Minnesota). This cell line was cultured in RPMI-1640 (Fisher Scientific) containing 10% fetal bovine serum (FBS) (Sigma Aldrich, St Louis, MO), 100U/ml of Penicillin-Streptomycin (Gibco™, ThermoFisher Scientific). The HS-27A bone marrow stromal cells were obtained from ATCC. They were maintained in RPMI 1640 (Fisher Scientific) supplemented with 100U/ml of Penicillin-Streptomycin (Gibco™, ThermoFisher Scientific) and 10% FBS (TakaraBio). Cells were cultured in a 37° C. tissue culture CO2 incubator.
For studies with compounds using a co-culture system of MWCL-1 and BMSCs, BMSCs were cultured in a 96-, 48- or 24-well plates and cultured until the 90% confluence was reached. […] After 1 hour, the MWCL-Icells were added to the BMSC to create a co-culture system. The cells were co-incubated for 72 hours. After incubation time, cell viability, apoptosis, and IgM release were measured.
For studying the effect of compounds on inducing apoptosis of Waldenström Macroglobulinemia cells (MWCL-1). Cells were washed with PBS, resuspended in Annexin V binding buffer (Biolegend), and stained with Alexa Fluor 647 annexin V (Biolegend), Propidium Iodide (BD Pharmigen), and CD45 antibody (Biolegend) for 15 minutes at RT and analyzed by flow cytometry. Data were collected on an CytoFLEX S Flow Cytometer (Beckman Coulter) and analysed with FCS Express Software (De Novo Software). Annexin V positive cells were considered apoptotic.
(In flow cytometry, cells or beads pass a laser one at a time.)

The test system of another experiment is WM patients. The note with it: cited from earlier work.
For the next experiment, the target named is T1, CDK13/CycK (Homo sapiens, UniProt Q14004).
T1 construct: purchased Reaction Biology Europe GmbH
As to the kind of experiment: PanQinase kinase panel: CDK13/CycK. In kind it is biochemical. The note with it: read-out: INHIBITORY EFFECT @ 1 uM: CDK13/CycK. As to the method: Screening procedures were performed in accordance with the company's on-line protocol [accessed on-line Mar. 25, 2022 at reaction biology.com/assay-protocol-panqinase]. Inhibitory activity of 50% or greater at concentrations of 1 μM are highlighted for all five compounds tested.
For each kinase, the median value of the cpm of three wells was defined as “low control” (n=3). This value reflects unspecific binding of radioactivity to the plate in the absence of a protein kinase but in the presence of the substrate. Additionally, for each kinase the median value of the cpm of three other wells was taken as the “high control,” i.e. full activity in the absence of any inhibitor (n=3). The difference between high and low control of each enzyme was taken as 100% activity.
As part of the data evaluation the low control of each kinase was subtracted from the high control value as well as from their corresponding “compound values”. The residual activity (in %) for each compound well was calculated by using the following formula: Res. Activity (%)=100×[(signal of compound−low control)/(high control−low control)].

Another experiment deals with T98G. Description: Glioblastoma multiforme cell proliferation assay (CellTiter Glo), T98G. Format: cell-based. Conditions: Homo sapiens. As to the method: as §1, §2, §3, §4, §5
For orientation: Cellular ATP, detected with luciferase, serves as a proxy for viable cell number.

T1 sequence (Q14004 whole entry): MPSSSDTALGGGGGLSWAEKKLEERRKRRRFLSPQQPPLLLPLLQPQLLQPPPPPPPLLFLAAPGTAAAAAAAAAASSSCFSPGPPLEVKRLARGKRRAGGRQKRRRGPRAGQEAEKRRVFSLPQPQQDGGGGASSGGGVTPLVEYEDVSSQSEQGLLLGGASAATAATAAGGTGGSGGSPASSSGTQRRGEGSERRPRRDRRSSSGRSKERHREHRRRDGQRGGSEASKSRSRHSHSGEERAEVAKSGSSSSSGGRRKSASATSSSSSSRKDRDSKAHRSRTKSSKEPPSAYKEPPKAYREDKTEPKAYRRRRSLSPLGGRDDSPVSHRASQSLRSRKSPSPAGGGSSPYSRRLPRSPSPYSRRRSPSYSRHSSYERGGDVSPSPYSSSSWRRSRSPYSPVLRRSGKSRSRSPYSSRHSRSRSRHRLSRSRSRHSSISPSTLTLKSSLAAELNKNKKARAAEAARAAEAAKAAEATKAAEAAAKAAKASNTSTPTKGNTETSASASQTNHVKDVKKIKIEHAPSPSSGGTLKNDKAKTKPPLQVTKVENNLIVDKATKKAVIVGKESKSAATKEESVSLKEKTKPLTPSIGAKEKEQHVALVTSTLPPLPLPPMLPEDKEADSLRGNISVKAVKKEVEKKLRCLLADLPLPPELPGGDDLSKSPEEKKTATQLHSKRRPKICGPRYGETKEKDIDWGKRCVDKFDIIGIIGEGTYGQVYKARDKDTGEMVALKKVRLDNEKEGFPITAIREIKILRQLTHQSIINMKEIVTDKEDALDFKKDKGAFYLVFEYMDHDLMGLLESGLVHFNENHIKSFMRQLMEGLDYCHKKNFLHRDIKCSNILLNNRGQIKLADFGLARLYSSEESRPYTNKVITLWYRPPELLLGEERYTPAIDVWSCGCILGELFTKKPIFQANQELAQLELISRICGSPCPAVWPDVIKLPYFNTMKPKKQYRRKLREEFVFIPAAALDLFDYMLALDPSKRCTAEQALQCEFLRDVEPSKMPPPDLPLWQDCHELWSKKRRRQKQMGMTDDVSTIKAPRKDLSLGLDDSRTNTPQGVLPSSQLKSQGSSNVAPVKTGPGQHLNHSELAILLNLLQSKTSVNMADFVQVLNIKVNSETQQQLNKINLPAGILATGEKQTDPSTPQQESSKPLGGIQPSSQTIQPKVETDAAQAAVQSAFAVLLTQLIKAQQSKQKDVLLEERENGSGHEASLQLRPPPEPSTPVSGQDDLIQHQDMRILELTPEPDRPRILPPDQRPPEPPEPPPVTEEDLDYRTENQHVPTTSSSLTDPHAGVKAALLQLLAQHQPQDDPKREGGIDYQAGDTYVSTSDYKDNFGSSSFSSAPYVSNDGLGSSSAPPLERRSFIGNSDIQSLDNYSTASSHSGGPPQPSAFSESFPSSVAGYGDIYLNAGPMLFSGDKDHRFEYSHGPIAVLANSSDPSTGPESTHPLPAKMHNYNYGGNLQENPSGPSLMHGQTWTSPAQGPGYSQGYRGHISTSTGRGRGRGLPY
T1 sequence (O75909 whole entry partner): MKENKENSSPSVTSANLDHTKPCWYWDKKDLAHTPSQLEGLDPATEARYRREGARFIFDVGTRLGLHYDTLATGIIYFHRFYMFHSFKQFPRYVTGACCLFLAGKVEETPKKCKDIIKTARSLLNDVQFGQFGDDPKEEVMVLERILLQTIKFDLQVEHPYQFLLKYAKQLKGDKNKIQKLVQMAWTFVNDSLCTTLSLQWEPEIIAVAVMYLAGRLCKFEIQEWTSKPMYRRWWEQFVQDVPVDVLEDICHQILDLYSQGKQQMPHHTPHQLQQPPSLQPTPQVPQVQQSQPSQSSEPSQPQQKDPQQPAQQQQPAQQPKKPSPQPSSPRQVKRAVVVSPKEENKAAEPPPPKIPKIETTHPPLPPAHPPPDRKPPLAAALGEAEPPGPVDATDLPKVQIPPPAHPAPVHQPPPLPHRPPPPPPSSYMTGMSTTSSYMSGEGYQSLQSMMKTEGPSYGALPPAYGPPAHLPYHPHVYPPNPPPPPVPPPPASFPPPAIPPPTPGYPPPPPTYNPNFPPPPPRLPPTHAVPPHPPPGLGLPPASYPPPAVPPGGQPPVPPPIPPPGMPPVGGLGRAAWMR

In the case of `C=CC(=O)N1CCC[C@@H](n2nc(-c3ccc(Oc4ccccc4)cc3)c3c(N)ncnc32)C1` [Ibrutinib, ibrutinib, reference compound], the Emax in the experiment with GBM-U251MG was 57%; in the experiment with U-87 MG (read-out: GBM-U87MG Cell Proliferation Emax %), 52%; in the experiment on T98G (read-out: GBM-T-98G Cell Proliferation Emax %), 73%. Besides, the IC50 in the experiment on GBM-U251MG was 0.31 µM; in the experiment with Ramos cell line, 0.87 µM; in the experiment on U-87 MG (96 h, read-out: U-87 MG IC50 (uM)) it was more than 30 µM; in the experiment with U-87 MG (read-out: GBM-U87MG Cell Proliferation IC50 uM), 28.5 µM; in the experiment on MWCL-1, 4.2 µM; in the experiment with T98G (96 h, read-out: T98G IC50 (uM)), more than 30 µM. For the same compound, in the experiment with T98G (read-out: GBM-T-98G Cell Proliferation IC50 uM), the IC50 was found to be 24.4 µM. Also, the values for the VGPR in the experiment with WM patients (WM patients with MYD88 L265P CXCR4 WT) and with WM patients (WM patients with double mutations MYD88 L265P CXCR4 WHIM) were 44.4% and 9.5%, respectively. The inhibition at 1 µM on CDK13/CycK was less than 50%.
